Where only a bound is given, the exact number is not on record here.

The source of these data is US10689362B2, “Quinoxaline compounds as type III receptor tyrosine kinase inhibitors” (Development Center for Biotechnology, priority 2016, dated 2020).

The target in assay [1] is c-KIT kinase (Homo sapiens (Human), UniProt P10721). The experiment in a line: c-KIT kinase assay (radiometric). In kind it is biochemical. The essentials: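 Recombinant c-Kit (20 ng) with 2 μg Poly-(Glu4:Tyr1) in MOPS pH 7.0 buffer with MgCl2/MnCl2, 10 μM ATP plus [^33P]-ATP, 4% DMSO final, 60 min at 30° C. Stopped with phosphoric acid, filter-captured and scintillation counted; IC50 from curve fit.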
Chain of c-KIT kinase (P10721 26-976): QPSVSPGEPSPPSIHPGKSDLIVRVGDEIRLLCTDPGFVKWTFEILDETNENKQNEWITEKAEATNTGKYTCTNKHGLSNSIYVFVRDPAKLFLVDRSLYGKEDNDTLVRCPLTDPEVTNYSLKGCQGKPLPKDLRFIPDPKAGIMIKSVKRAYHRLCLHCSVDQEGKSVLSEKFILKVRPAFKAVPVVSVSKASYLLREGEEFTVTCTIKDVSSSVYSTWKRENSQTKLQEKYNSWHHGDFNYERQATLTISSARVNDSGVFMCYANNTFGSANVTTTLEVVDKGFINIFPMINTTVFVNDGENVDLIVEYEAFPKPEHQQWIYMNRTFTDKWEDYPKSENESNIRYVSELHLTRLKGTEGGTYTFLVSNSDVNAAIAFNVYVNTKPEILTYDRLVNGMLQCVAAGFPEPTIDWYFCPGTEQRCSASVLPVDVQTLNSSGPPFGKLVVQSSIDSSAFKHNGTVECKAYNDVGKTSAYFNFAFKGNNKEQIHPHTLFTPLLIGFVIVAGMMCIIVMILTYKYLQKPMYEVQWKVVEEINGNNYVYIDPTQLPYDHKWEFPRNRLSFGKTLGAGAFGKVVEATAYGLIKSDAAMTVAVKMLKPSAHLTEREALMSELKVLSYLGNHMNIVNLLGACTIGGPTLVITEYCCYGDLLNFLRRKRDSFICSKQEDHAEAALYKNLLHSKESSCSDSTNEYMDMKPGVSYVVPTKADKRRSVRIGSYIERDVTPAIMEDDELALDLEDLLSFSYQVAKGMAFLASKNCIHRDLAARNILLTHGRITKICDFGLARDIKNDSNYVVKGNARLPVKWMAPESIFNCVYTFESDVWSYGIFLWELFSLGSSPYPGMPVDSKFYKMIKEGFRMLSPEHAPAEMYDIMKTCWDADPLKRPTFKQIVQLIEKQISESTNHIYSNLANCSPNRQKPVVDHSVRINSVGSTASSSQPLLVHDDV

The test system of assay [2] is Kasumi-1 human acute myeloid leukemia cell with c-KIT N822K activating mutation. Nature of the assay: Kasumi-1 cell proliferation assay (CellTiter-96). The assay is classed as cell-based. To be noted: Cytotoxicity, Kasumi-1 cells, 72 hours. The gist of the method:
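After 72 h of treatment with a compound dilution series, growth of c-KIT N822K-driven Kasumi-1 cells (64000 per well, plated the day before) was read as 490 nm absorbance. This followed a 4 h incubation with CellTiter96 AQueous One reagent.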

Assay [3] concerns osteoclast precursors (osteoclast differentiation). The experiment in a line: Osteoclast tartrate-resistant acid phosphatase assay. The assay is classed as cell-based. To be noted: 168 h, at 1 μM treatment, 7 days, RANKL and M-CSF, read-out: inhibition activity against osteoclast differentiation. The gist of the method:
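Differentiation inhibition was scored at 1 μM compound in duplicate, using supernatant TRAP activity read at 550 nm with an acid phosphatase kit.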

Assay [4] has as its system MV4-11 human acute myeloid leukemia cell with FLT3-ITD mutation. Nature of the assay: MV4-11 cell proliferation assay (CellTiter-96). To be noted: Cytotoxicity, MV4-11 cells, 72 hours. The assay is classed as cell-based. The essentials: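 Growth inhibition read as absorbance at 490 nm after 4 hours with CellTiter96 AQueous One reagent. Before that, FLT3-ITD-dependent MV4-11 cells (6500 cells/well, overnight at 37° C., 5% CO2) received a rising compound concentration series for 72 hours.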

For assay [5], the system named is THP-1 human acute monocytic leukemia cell harboring NRAS G12D mutation. Nature of the assay: THP-1 cell proliferation assay (counter screen, CellTiter-96). The assay is classed as cell-based. As to conditions: Cytotoxicity, THP-1 cells (counter screen), 72 hours. The essentials: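 Growth inhibition read as 490 nm absorbance after 4 h with CellTiter96 AQueous One reagent, following 72 h compound exposure at rising concentrations. THP-1 (NRAS G12D) cells plated at 5000 per well and left overnight at 37 °C, 5% CO2 before dosing.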
(In general: Counterscreens check selectivity or assay interference.)

Assay [6] addresses FLT3 kinase (Homo sapiens (Human), UniProt P36888). Nature of the assay: FLT3 kinase assay (radiometric). The assay is classed as biochemical. To be noted: bound. The essentials:
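Recombinant FLT3 (5 ng) phosphorylating poly(Glu4:Tyr1) (2 μg) with 10 μM ATP plus [^33P]-ATP in MOPS pH 7.0 buffer, 4% DMSO final, 60 min at 30° C. Reaction stopped with phosphoric acid, filter-captured and scintillation-counted; IC50 derived from dose-response.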

Assay [7] concerns CSF-1-dependent M-NFS-60 mouse myeloid leukemia cell. The experiment in a line: M-NFS-60 cell proliferation assay (CellTiter-96). The assay is classed as cell-based. As to conditions: Cytotoxicity, M-NFS-60 cells, 72 hours. The essentials:
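Growth inhibition was measured as absorbance at 490 nm after 4 h with CellTiter 96 AQueous One reagent. Beforehand, M-NFS-60 cells (2000/well, CSF-1-dependent) were treated with a compound dilution series for 72 h following overnight plating at 37 °C, 5% CO2.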

The target in assay [8] is PDGFRβ kinase (Homo sapiens (Human), UniProt P09619). The experiment in a line: PDGFRβ kinase assay (radiometric). The assay is classed as biochemical. The gist of the method: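 Radiometric assay: recombinant PDGFRβ with poly(Glu4:Tyr1) in MOPS pH 7.0 buffer containing Mg2+/Mn2+, 10 μM ATP plus [33P]-ATP, and compound at 4% DMSO final. Incubated 60 min at 30° C, stopped with phosphoric acid, filter-captured and scintillation-counted. IC50 from curve fitting.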
Chain of PDGFRβ kinase (P09619 33-1106): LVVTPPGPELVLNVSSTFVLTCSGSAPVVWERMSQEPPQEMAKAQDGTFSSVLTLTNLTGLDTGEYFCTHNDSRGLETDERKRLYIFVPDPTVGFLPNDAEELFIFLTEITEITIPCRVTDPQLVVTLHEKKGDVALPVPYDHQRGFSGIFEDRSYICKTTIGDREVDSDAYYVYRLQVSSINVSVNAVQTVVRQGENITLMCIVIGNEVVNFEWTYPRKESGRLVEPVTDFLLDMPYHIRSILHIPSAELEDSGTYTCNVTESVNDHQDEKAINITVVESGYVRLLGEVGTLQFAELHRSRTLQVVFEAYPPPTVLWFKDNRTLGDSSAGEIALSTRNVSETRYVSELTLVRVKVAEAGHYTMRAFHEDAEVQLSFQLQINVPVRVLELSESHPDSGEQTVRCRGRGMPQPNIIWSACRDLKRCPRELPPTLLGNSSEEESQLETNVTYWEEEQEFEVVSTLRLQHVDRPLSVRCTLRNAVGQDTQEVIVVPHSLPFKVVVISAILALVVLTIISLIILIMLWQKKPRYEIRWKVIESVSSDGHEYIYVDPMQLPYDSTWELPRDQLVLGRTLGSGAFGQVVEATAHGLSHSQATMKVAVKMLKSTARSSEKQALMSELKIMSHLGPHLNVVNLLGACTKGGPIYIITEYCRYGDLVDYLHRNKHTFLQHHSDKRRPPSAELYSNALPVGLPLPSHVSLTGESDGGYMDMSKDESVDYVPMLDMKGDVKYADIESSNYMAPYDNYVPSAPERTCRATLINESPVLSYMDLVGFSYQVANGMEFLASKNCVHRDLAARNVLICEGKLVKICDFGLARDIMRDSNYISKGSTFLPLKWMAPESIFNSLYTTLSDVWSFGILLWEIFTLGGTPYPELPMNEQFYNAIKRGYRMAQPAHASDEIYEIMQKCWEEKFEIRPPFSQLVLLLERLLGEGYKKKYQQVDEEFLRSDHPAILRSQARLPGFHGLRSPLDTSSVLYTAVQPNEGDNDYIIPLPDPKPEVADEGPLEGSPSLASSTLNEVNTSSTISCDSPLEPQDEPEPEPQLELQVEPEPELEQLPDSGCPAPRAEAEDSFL

The target of assay [9] is CSF-1R kinase (Homo sapiens (Human), UniProt P07333). The experiment in a line: CSF-1R kinase assay (AlphaScreen). The assay is classed as biochemical. To be noted: class symbol. The procedure:
Inhibition of CSF-1R kinase activity by a test compound disclosed herein was estimated by AlphaScreen (PerkinElmer). […] Reactions were incubated at 30° C. for 45 min and stopped by adding 5 μL of 50 mM EDTA. Analysis of resulting product using an AlphaScreen kit, and counted with Enspire Alpha (PerkinElmer). […] The IC50 values of quinoxaline compounds of this invention against CSF-1R kinase were determined using the GraphPad Prism 5 software.
On the technique in general: Bead proximity is the source of the signal in Alpha formats.

Chain of CSF-1R kinase (P07333 20-972): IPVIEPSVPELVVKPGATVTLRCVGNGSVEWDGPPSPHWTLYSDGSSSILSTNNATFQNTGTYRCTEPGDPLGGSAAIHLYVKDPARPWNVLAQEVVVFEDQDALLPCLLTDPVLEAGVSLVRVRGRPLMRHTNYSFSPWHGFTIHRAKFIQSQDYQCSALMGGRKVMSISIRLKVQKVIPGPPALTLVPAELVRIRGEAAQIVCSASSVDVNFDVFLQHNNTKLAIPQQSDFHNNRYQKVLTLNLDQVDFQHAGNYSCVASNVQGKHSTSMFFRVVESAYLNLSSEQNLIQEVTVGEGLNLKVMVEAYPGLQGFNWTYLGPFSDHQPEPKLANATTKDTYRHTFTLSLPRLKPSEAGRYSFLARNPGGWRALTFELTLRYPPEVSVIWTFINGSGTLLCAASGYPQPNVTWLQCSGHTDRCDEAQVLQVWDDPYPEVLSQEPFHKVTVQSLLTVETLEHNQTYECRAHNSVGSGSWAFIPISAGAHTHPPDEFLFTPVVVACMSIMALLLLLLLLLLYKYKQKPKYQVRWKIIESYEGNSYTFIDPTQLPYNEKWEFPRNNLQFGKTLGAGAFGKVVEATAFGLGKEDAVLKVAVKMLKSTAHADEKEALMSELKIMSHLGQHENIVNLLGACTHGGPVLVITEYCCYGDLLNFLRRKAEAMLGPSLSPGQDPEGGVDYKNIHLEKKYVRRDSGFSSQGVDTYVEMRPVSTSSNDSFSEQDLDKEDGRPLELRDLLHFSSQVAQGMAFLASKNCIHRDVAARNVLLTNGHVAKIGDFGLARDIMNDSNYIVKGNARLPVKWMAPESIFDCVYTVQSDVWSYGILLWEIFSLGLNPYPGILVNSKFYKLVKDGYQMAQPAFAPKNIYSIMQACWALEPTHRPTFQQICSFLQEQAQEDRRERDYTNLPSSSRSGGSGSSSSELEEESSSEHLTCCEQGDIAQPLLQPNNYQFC
Chain of FLT3 kinase (P36888 27-993): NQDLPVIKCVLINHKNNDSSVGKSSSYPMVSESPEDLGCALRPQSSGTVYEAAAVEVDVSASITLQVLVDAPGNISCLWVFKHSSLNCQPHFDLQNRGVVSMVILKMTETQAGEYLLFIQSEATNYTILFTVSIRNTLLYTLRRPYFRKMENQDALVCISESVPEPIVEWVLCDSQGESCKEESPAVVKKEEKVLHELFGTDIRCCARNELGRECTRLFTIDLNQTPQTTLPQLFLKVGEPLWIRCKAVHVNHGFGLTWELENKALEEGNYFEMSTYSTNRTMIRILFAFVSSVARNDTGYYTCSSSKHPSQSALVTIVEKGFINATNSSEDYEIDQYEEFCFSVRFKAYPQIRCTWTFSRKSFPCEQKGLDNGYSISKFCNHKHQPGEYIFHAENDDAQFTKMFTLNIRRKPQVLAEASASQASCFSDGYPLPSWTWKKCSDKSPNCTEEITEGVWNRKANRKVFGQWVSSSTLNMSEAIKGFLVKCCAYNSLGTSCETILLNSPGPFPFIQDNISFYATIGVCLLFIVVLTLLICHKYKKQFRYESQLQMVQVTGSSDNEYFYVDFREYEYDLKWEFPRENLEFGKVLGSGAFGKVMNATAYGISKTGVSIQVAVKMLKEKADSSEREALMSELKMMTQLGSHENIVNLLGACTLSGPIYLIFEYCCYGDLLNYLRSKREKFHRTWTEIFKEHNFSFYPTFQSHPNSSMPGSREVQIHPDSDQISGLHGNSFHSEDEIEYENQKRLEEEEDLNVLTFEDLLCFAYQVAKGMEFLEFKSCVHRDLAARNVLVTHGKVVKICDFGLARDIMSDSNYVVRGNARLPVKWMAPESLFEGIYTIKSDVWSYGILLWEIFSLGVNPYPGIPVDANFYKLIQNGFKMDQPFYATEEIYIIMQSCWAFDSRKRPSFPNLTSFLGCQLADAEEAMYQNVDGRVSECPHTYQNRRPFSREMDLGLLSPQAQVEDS

The term IC50 denotes the concentration that gives 50% inhibition. A word on the inhibition: it is the drop in the measured response relative to a control, in per cent. In the case of `COc1cc(Nc2ccc3ncc(N(C)C)nc3c2C#N)ccc1OCc1ccc(C)nc1` [Example 133, 3-(dimethylamino)-6-((3-methoxy-4-((6-methylpyridin-3-yl)methoxy)phenyl)amino)quinoxaline-5-carbonitrile], the IC50 in [1] (class symbol) is below 100 nM; in assay [2], 300 to 1000 nM; in assay [4] it was above 10000 nM; in assay [5] it was above 10000 nM; in assay [6], above 1000 nM; in assay [7], below 300 nM. Further, the half-inhibitory concentration (IC50) in assay [8] (bound) is above 1000 nM; in assay [9] it was below 100 nM. The inhibition at 1 µM in assay [3] is above 50%.

For the molecule `COc1cc(Nc2ccc3ncc(N4CCOCC4)nc3c2C(N)=O)ccc1OCc1ccc(C)nc1` [Example 135, 6-((3-methoxy-4-((6-methylpyridin-3-yl)methoxy)phenyl)amino)-3-morpholinoquinoxaline-5-carboxamide], the IC50 in [1] (class symbol) was below 100 nM; in assay [2] it was below 300 nM; in [4], 1000 to 10000 nM; in assay [5], above 10000 nM; in assay [6], above 1000 nM; in assay [7], below 300 nM. Besides, the half-inhibitory concentration (IC50) in [8] (bound) is above 1000 nM; in assay [9] it was below 100 nM. Further, the inhibition at 1 µM in assay [3] is above 50%.

In the case of `COc1cc(Nc2ccc3ncc(N4CC(N(C)C)C4)nc3c2C#N)ccc1OCc1ccc(C)nc1` [Example 136, 3-(3-(dimethylamino)azetidin-1-yl)-6-((3-methoxy-4-((6-methylpyridin-3-yl)methoxy)phenyl)amino)quinoxaline-5-carbonitrile], the IC50 is below 100 nM in assay [1] (class symbol); 1000 to 10000 nM in assay [2]; 1000 to 10000 nM in [4]; above 10000 nM in [5]; above 1000 nM in assay [6]; 300 to 1000 nM in assay [7]. Moreover, the concentration for half-maximal inhibition (IC50) in assay [8] (bound) was above 1000 nM; in [9] it was below 100 nM. Also, the inhibition at 1 µM in assay [3] is above 50%.

For `COc1ccc(COc2ccc(Nc3ccc4ncc(N(C)C)nc4c3C#N)cc2OC)cn1` [Example 137, 3-(dimethylamino)-6-((3-methoxy-4-((6-methoxypyridin-3-yl)methoxy)phenyl)amino)quinoxaline-5-carbonitrile], the half-maximal inhibitory concentration (IC50) in assay [1] (class symbol) is below 100 nM; in assay [2], 300 to 1000 nM; in [4], 1000 to 10000 nM; in [5], above 10000 nM; in assay [6], above 1000 nM; in [7] it was below 300 nM. The half-inhibitory concentration (IC50) was above 1000 nM in assay [8] (bound) and below 100 nM in assay [9]. The inhibition at 1 µM in [3] was above 50%.

As for `COc1cc(Nc2ccc3ncc(N4CC(C)(OC)C4)nc3c2C#N)ccc1OCc1ccc(C)nc1` [Example 138, 3-(3-methoxy-3-methylazetidin-1-yl)-6-((3-methoxy-4-((6-methyl-pyridin-3-yl)methoxy)phenyl)amino)quinoxaline-5-carbonitrile], the half-inhibitory concentration (IC50) in assay [1] (class symbol) is below 100 nM; in assay [2] it was below 300 nM; in assay [4], 1000 to 10000 nM; in [5], above 10000 nM; in assay [6], above 1000 nM; in assay [7], below 300 nM. Besides, the half-inhibitory concentration (IC50) is above 1000 nM in assay [8] (bound) and below 100 nM in [9]. Moreover, the inhibition at 1 µM in [3] is above 50%.

In the case of `COc1ccc(COc2ccc(Nc3ccc4ncc(N(C)C)nc4c3C#N)cc2OC)cc1C#N` [Example 139, 6-((4-((3-cyano-4-methoxybenzyl)oxy)-3-methoxyphenyl)amino)-3-(dimethylamino)quinoxaline-5-carbonitrile], the IC50 was 100 to 300 nM in assay [1] (class symbol); above 10000 nM in [2]; above 10000 nM in assay [4]; above 10000 nM in assay [5]; above 1000 nM in assay [6]; below 300 nM in assay [7]. For the same molecule, the half-inhibitory concentration (IC50) is above 1000 nM in assay [8] (bound) and below 100 nM in assay [9]. For the same molecule, the inhibition at 1 µM in [3] was above 50%.

Turning to `COc1cc(Nc2ccc3ncc(N4CCOCC4)nc3c2C#N)ccc1OCc1cnn(CC2CC2)c1` [Example 141, 6-((4-((1-(cyclopropylmethyl)-1H-pyrazol-4-yl)methoxy)-3-methoxyphenyl)amino)-3-morpholinoquinoxaline-5-carbonitrile], the IC50 in assay [1] (class symbol) is below 100 nM; in assay [2], below 300 nM; in assay [4] it was 1000 to 10000 nM; in assay [5] it was above 10000 nM; in assay [6], above 1000 nM; in assay [7], below 300 nM. Besides, the results for the 50% inhibitory concentration (IC50) in assay [8] (class symbol) and in [9] were 300 to 1000 nM and below 100 nM, respectively. Besides, the inhibition at 1 µM in assay [3] was above 50%.

Take `COc1cc(Nc2ccc3ncc(N4CCOCC4)nc3c2C#N)cnc1OCc1ccc(C)nc1` [Example 143, 6-((5-methoxy-6-((6-methylpyridin-3-yl)methoxy)pyridin-3-yl)amino)-3-morpholinoquinoxaline-5-carbonitrile]: the IC50 in assay [1] (class symbol) is 300 to 1000 nM; in [2] it was above 10000 nM; in assay [4], 1000 to 10000 nM; in assay [5] it was above 10000 nM; in [6], above 1000 nM; in assay [7] it was below 300 nM. Moreover, the figures for the half-inhibitory concentration (IC50) in [8] (bound) and in assay [9] were above 1000 nM and below 100 nM, respectively. The inhibition at 1 µM in assay [3] was above 50%.

Take `COc1ccc(COc2ncc(Nc3ccc4ncc(N5CCOCC5)nc4c3C#N)cc2OC)cn1` [Example 144, 6-((5-methoxy-6-((6-methoxypyridin-3-yl)methoxy)pyridin-3-yl)amino)-3-morpholinoquinoxaline-5-carbonitrile]: the IC50 in [1] (bound) is above 1000 nM; in assay [2], above 10000 nM; in assay [4], above 10000 nM; in [5], above 10000 nM; in [6], above 1000 nM; in [7], below 300 nM. For the same molecule, the values for the IC50 in [8] (bound) and in [9] were above 1000 nM and below 100 nM, respectively. Besides, the inhibition at 1 µM in [3] was above 50%.

Take `COc1cc(Nc2ccc3ncc(N4C[C@@H](C)O[C@@H](C)C4)nc3c2C#N)ccc1OCc1ccc(C)nc1` [Example 145, 3-((2S,6R)-2,6-dimethylmorpholino)-6-((3-methoxy-4-((6-methyl-pyridin-3-yl)methoxy)phenyl)amino)quinoxaline-5-carbonitrile]: the IC50 in assay [1] (class symbol) was 100 to 300 nM; in [2], 300 to 1000 nM; in assay [4], 1000 to 10000 nM; in assay [5], above 10000 nM; in assay [6] it was above 1000 nM; in assay [7], below 300 nM. For the same molecule, the IC50 in assay [8] (bound) is above 1000 nM; in assay [9], below 100 nM. Besides, in assay [3], the inhibition at 1 µM is above 50%.
